# Data from US20250290117A1, “MOLECULAR PHENOTYPIC ANTIMICROBIAL SUSCEPTIBILITY TESTING” (priority 2024, published 2025).
# Experiments:
# [1] = test system: E. coli; assay: Molecular phenotypic antimicrobial susceptibility test, specimen with two detected pathogens incubated together without isolation; type: cell-based, Escherichia coli; settings: E. coli in specimen with two detected pathogens (E. coli and M. morganii) incubated together
# Procedure: (§1) Detection of Molecular Phenotypic Antimicrobial Susceptibility. Disclosed herein are the methods for the detection of phenotypic antimicrobial susceptibility via molecular methods. The present invention describes how a specimen 100 with a known microbial load is incubated and then exposed to a panel of antimicrobial agents to determine sensitivity (prevention of growth) or resistance (allowance of growth) to the specific antimicrobial agents tested utilizing molecular methods.
# (§2) Sample Collection. Specimens 100 are collected from patients using sterile collection processes that are employed in routine clinical care. Specimens are transported to the testing facility in boric acid preservative. Specimens 100 are subsequently divided into a first sample 104 and a second sample 108.
# (§3) Preparation of the Specimens for Testing. The specimens 100 are put through a pathogen identification process using PCR technology (e.g., using the first sample 104). The process for pathogen isolation includes steps of harvesting the pathogen (e.g., via centrifugation), isolating pathogen DNA via a DNA isolation and/or purification kit, and performing PCR on the pathogen DNA via PCR components (e.g., primers, enzymes, buffers) as would be known to the skilled artisan. Simultaneously, an additional aliquot of the same specimen (e.g., the second sample 108) is placed with liquid culture media and incubated for 4-6 hours. This aliquot is used for antimicrobial susceptibility testing if indicated based on the pathogen detection results. After pathogen identification is completed and if more than 10,000 cells/mL of bacteria (e.g., eligible bacteria) are detected in the source specimen, the second sample 108 then enters the antimicrobial susceptibility phase of testing. Specimens 100 with lower pathogen loads could also be utilized in the antibiotic susceptibility phase of testing with or without a longer incubation period.
# (§4) Preparation of Antimicrobial Susceptibility Testing Plates. Antimicrobial solutions are prepared at known concentrations. The specific antimicrobials and their concentrations are selected based on the pathogen of interest and the described antimicrobial resistance breakpoints for that specimen pathogen and antimicrobial combination. These antimicrobials have been selected based on those commonly utilized by healthcare providers in routine clinical care for the specific type of suspected infection. The number and types of antimicrobials utilized can be customized based on the infection source, pathogen detected, patient-specific factors such as allergies or other health conditions (e.g., chronic kidney disease or concurrent medication use), or healthcare provider preferences such as antimicrobial availability or cost.
# (§5) The antimicrobial solutions are prepared in liquid culture media (such as Muller Hinton Broth) to achieve the desired antimicrobial concentration and are then stored at −80° C. until use. For a given specimen, each antimicrobial is tested at a single or multiple antimicrobial concentration(s) which is its established breakpoints for sensitivity. The antimicrobial solutions are prepared and plated out for each specific pathogen. This allows ease of use on the day of testing after defrosting the plate 112. Table 1, which illustrates the results of molecular phenotypic antimicrobial susceptibility testing when more than one organism is present in the source specimen, provides an example of an antimicrobial plate 112 prepared for this purpose. Of note, control wells containing only culture media are present on all plates 112. This allows for evaluation of pathogen load when no antimicrobial is present.
# (§6) Specimen Exposure to Antimicrobial Agents. The 1 mL aliquot of the specimen 100 previously mixed with culture media and incubated is obtained. Using optical density measurements as a guide, the specimen 100 is diluted to 0.5 McFarland. […]
# [2] = test system: M. morganii; assay: as above; type: cell-based, Morganella morganii; settings: M. morganii in specimen with two detected pathogens (E. coli and M. morganii) incubated together
# Procedure: as §1, §2, §3, §4, §5, §6
# [3] = test system: pathogens of clinical samples; assay: Molecular phenotypic antimicrobial susceptibility test of clinical samples, extraction DNA purification step prior to PCR (Table 6); type: cell-based
# Procedure: as §1
# Sample Collection. Specimens 100 are collected from patients using sterile collection processes that are employed in routine clinical care. Specimens are transported to the testing facility in boric acid preservative.
# Preparation of the Specimens for Testing. […] The process for pathogen isolation includes steps of harvesting the pathogen (e.g., via centrifugation), isolating pathogen DNA via a DNA isolation and/or purification kit, and performing PCR on the pathogen DNA via PCR components (e.g., primers, enzymes, buffers) as would be known to the skilled artisan. […] This aliquot is used for antimicrobial susceptibility testing if indicated based on the pathogen detection results. […] Specimens 100 with lower pathogen loads could also be utilized in the antibiotic susceptibility phase of testing with or without a longer incubation period.
# as §4
# The antimicrobial solutions are prepared in liquid culture media (such as Muller Hinton Broth) to achieve the desired antimicrobial concentration and are then stored at −80° C. until use. For a given specimen, each antimicrobial is tested at a single or multiple antimicrobial concentration(s) which is its established breakpoints for sensitivity. The antimicrobial solutions are prepared and plated out for each specific pathogen. […] This allows for evaluation of pathogen load when no antimicrobial is present.
# Specimen Exposure to Antimicrobial Agents. The 1 mL aliquot of the specimen 100 previously mixed with culture media and incubated is obtained. Using optical density measurements as a guide, the specimen 100 is diluted to 0.5 McFarland.
# Antimicrobial exposure plates are typically placed into an incubator for 12-16 hours.
# Nucleic Acid Amplification of Antimicrobial Agent Exposed Pathogens. The antimicrobial exposure plate is removed after the period of incubation. The specimen then undergoes a purification or lysis step. For example, the specimen may undergo a purification step (e.g., magnetic bead-based or other separation protocol to isolate genetic material). In another example, the specimen may undergo a cell lysis step. For example, buffer (e.g., lysis buffer) may be added and incubated in the thermal cycler for preparation for direct PCR. Next, the specimen may undergo a polymerase chain reaction (PCR) testing protocol, whereby a semi-quantitative PCR method is utilized. This may be completed either with or without a specific extraction protocol step. The pathogens can be individually targeted and detected, or a universal genetic sequence can be utilized to detect the antimicrobial susceptibility of the specimen as a whole.
compound,measurement,setting,value
C[C@@H]1O[C@@H]1P(=O)(O)O [Fosfomycin],Ct of Sensitive Breakpoint,[1]; Ct of controls (average) 15.93,29.24
same,Molecular Antimicrobial Susceptibility Result,[1]; at sensitive breakpoint,Sensitive (Antimicrobial wells with pathogen load detected below the control wells (typically >2 cycle thresholds later) may be reported as Sensitive)
same,Ct of Sensitive Breakpoint,[2]; Ct of controls (average) 19.99,33.43
same,Molecular Antimicrobial Susceptibility Result,[2]; at sensitive breakpoint,Sensitive (Antimicrobial wells with pathogen load detected below the control wells (typically >2 cycle thresholds later) may be reported as Sensitive)
same,Molecular Antibiotic Susceptibility Result,"[3]; E. coli, clinical sample of r10-r24",Sensitive (Antimicrobial wells with pathogen load detected below the control wells (typically >2 cycle thresholds later) may be reported as Sensitive)
same,Ct,"[3]; E. coli, clinical sample of r10-r24, Ct Control Avg 18.112",28.111
same,Molecular Antibiotic Susceptibility Result,"[3]; E. coli, clinical sample of r158-r172",Sensitive (Antimicrobial wells with pathogen load detected below the control wells (typically >2 cycle thresholds later) may be reported as Sensitive)
same,Ct,"[3]; E. coli, clinical sample of r158-r172, Ct Control Avg 20.146",30.261
same,Molecular Antibiotic Susceptibility Result,"[3]; E. faecalis, clinical sample of r93-r99",Sensitive (Antimicrobial wells with pathogen load detected below the control wells (typically >2 cycle thresholds later) may be reported as Sensitive)
same,Ct,"[3]; E. faecalis, clinical sample of r93-r99, Ct Control Avg 22.987",35.358
same,Molecular Antibiotic Susceptibility Result,"[3]; E. faecalis, clinical sample of r100-r106",sensitive
same,Ct,"[3]; E. faecalis, clinical sample of r100-r106, Ct Control Avg 23.073",36.898
same,Molecular Antibiotic Susceptibility Result,"[3]; E. faecalis, clinical sample of r107-r113",Resistant
same,Ct,"[3]; E. faecalis, clinical sample of r107-r113, Ct Control Avg 22.144",20.142
same,Molecular Antibiotic Susceptibility Result,"[3]; E. faecalis, clinical sample of r114-r120",Sensitive (Antimicrobial wells with pathogen load detected below the control wells (typically >2 cycle thresholds later) may be reported as Sensitive)
same,Ct,"[3]; E. faecalis, clinical sample of r114-r120, Ct Control Avg 20.822",30.598
same,Molecular Antibiotic Susceptibility Result,"[3]; E. faecalis, clinical sample of r151-r157",Sensitive (Antimicrobial wells with pathogen load detected below the control wells (typically >2 cycle thresholds later) may be reported as Sensitive)
same,Ct,"[3]; E. faecalis, clinical sample of r151-r157, Ct Control Avg 20.56",37.968
same,Molecular Antibiotic Susceptibility Result,"[3]; K. aerogenes, clinical sample of r136-r150",Sensitive (Antimicrobial wells with pathogen load detected below the control wells (typically >2 cycle thresholds later) may be reported as Sensitive)
same,Ct,"[3]; K. aerogenes, clinical sample of r136-r150, Ct Control Avg 19.994",25.008
same,Molecular Antibiotic Susceptibility Result,"[3]; K. pneumoniae, clinical sample of r121-r135",Resistant
same,Ct,"[3]; K. pneumoniae, clinical sample of r121-r135, Ct Control Avg 24.272",18.711
same,Molecular Antibiotic Susceptibility Result,"[3]; M. morganii, clinical sample of r55-r69",Sensitive (Antimicrobial wells with pathogen load detected below the control wells (typically >2 cycle thresholds later) may be reported as Sensitive)
same,Ct,"[3]; M. morganii, clinical sample of r55-r69, Ct Control Avg 28.86",31.935
same,Molecular Antibiotic Susceptibility Result,"[3]; M. morganii, clinical sample of r70-r84",Sensitive (Antimicrobial wells with pathogen load detected below the control wells (typically >2 cycle thresholds later) may be reported as Sensitive)
same,Ct,"[3]; M. morganii, clinical sample of r70-r84, Ct Control Avg 27.053",37.955
same,Molecular Antibiotic Susceptibility Result,"[3]; P. mirabilis, clinical sample of r25-r39",Sensitive (Antimicrobial wells with pathogen load detected below the control wells (typically >2 cycle thresholds later) may be reported as Sensitive)
same,Ct,"[3]; P. mirabilis, clinical sample of r25-r39, Ct Control Avg 26.064",27.051
same,Molecular Antibiotic Susceptibility Result,"[3]; P. mirabilis, clinical sample of r40-r54",Sensitive (Antimicrobial wells with pathogen load detected below the control wells (typically >2 cycle thresholds later) may be reported as Sensitive)
same,Ct,"[3]; P. mirabilis, clinical sample of r40-r54, Ct Control Avg 26.987",31.981
